pEC50: −log10 of the molar value.
Key:
[1] = Maximum percentage effect of standard Opioid receptor delta 1 (Cl-DPDPE)
[2] = Maximum % effect of standard (DAMGO) was reported against Opioid receptor mu 1

| SMILES | pEC50 [1] | pEC50 [2] |
| --- | --- | --- |
| CN1CC[C@]23c4c5ccc(O)c4O[C@H]2c2c(c(-c4ccccc4)cn2Cc2ccccc2)C[C@@]3(O)C1C5 [7-benzyl-18-methyl-5-phenyl-10-oxa-7,18-diazahexacyclo[9.9.1.01,9.02,17.04,8.015,21]henicosa-4(8),5,11,13,15(21)-pentaene-2,12-diol] | 7.39 |  |
| Cc1ccc(-c2cn(Cc3ccccc3)c3c2C[C@@]2(O)C4Cc5ccc(O)c6c5[C@@]2(CCN4CC2CC2)[C@H]3O6)cc1 [7-benzyl-18-cyclopropylmethyl-5-(4-methylphenyl)-10-oxa-7,18-diazahexacyclo[9.9.1.01,9.02,17.04,8.015,21]henicosa-4(8),5,11,13,15(21)-pentaene-2,12-diol] |  | 7.47 |
